# Patent US8039076B2, “Dye and recording media utilizing the same” (Industrial Technology Research Institute, priority 2006, dated 2011)
# Assay: Optical measurement of the dyes by UV-visible spectrophotometer
# Type: physicochemical
# Set-up: Max absorption wavelength in MeOH solution: unit: nm
# Settings: for absorption coefficient (ε) (* 10^4) / Max absorption wavelength in MeOH solution: MeOH solution
# Excerpt: Measured by UV-visible spectrophotometer, the optical properties (e.g. maximum absorption wavelength in solution) of the dyes of the preferred embodiments are tabulated in Table 1. In Table 1, dye I-2 has a maximum absorption wavelength of 489 nm in methanol solution, and dye V-2 has a maximum absorption wavelength of 493 nm in methanol solution, respectively.
# [1] = at second printed absorption maximum
SMILES,absorption coefficient (ε) (* 10^4) (at first absorption maximum),Max absorption wavelength in MeOH solution (first band),absorption coefficient (ε) (* 10^4) [1],Max absorption wavelength in MeOH solution (second printed band),maximum absorption wavelength in methanol solution
CC1=[N+](C)c2ccccc2C1(C)C [I-n],11.5 * 10^4,462,,,
CCCCN(CCCC)c1ccc([N+](=C2C=CC(=[N+](c3ccc(N(CCCC)CCCC)cc3)c3ccc(N(CCCC)CCCC)cc3)C=C2)c2ccc(N(CCCC)CCCC)cc2)cc1 [V-c],6.8 * 10^4,461,3.8 * 10^4,1067,
CC1=[N+](Cc2ccc(C(=O)OCC(F)(F)C(F)F)cc2)c2ccccc2C1(C)C [I-f],8.08 * 10^4,448,,,
c1ccncc1 [I-a],4.98 * 10^4,460,,,
CCCCN(CCCC)c1ccc([N+](=C2C=CC(=[N+](c3ccc(N(CCCC)CCCC)cc3)c3ccc(N(CCCC)CCCC)cc3)C=C2)c2ccc(N(CCCC)CCCC)cc2)cc1 [I-d],6.58 * 10^4,460,5.11 * 10^4,1067,
CCN(CC)CC [V-d],8.45 * 10^4,463,,,
CCCC[N+](CCCC)(CCCC)CCCC [I-c],6.22 * 10^4,460,,,
CC1=[N+](C)c2ccccc2C1(C)C [V-e],10.35 * 10^4,490,,,
CC1=[N+](C)c2ccccc2C1(C)C [I-h],18.5 * 10^4,462,,,
CCOC(=O)CCCC[N+]1=C(C)C(C)(C)c2ccccc21 [I-k],11.8 * 10^4,460,,,
CC1=[N+](Cc2ccc(C(=O)OCC(C)(C)C(C)C)cc2)c2ccccc2C1(C)C [V-b],9.72 * 10^4,492,,,
CCCC[N+]1=C(C)C(C)(C)c2ccccc21 [I-j],12.1 * 10^4,459,,,
COS(=O)(=O)CCCC[N+]1=C(C)C(C)(C)c2ccccc21 [I-l],12.5 * 10^4,461,,,
CC1=[N+](Cc2ccc(C(=O)OCC(F)(F)C(F)F)cc2)c2ccccc2C1(C)C [I-i],12.2 * 10^4,464,,,
CC1=[N+](Cc2ccc(C(=O)OCC(F)(F)C(F)F)cc2)c2ccccc2C1(C)C [I-e],7.58 * 10^4,471,,,
CC1=[N+](C)c2ccccc2C1(C)C [Dye V-2],19.1 * 10^4,493,,,493 nm
Cc1sc2ccccc2[n+]1C [I-m],10.7 * 10^4,472,,,
CC1=[N+](Cc2ccc(C(=O)OCC(F)(F)C(F)F)cc2)c2ccccc2C1(C)C [I-g],12.99 * 10^4,463,,,
CC1=[N+](Cc2ccc(C(=O)OCC(F)(F)C(C)F)cc2)c2ccccc2C1(C)C (stereo not drawn) [I-b],8.4 * 10^4,495,,,
CCCC[N+](CCCC)(CCCC)CCCC [V-a],6.41 * 10^4,461,,,
CC1=[N+](C)c2ccccc2C1(C)C [Dye I-2],15.4 * 10^4,489,,,489 nm
